This passage reports IC50 results from US12667572B2, “Tricyclic compounds useful in the treatment of cancer, autoimmune and inflammatory disorders” (SCHRÖDINGER, INC., priority 2021, dated 2026).

For assay [1], the target named is T1, full-length MALT1 protein His-MALT1(1-824) (Homo sapiens, UniProt Q9UDY8).
T1 construct: full-length MALT1 protein His-MALT1(1-824); His (N); made in house; host or cells: baculovirus-infected insect cells
T1 sequence (Q9UDY8 1-824): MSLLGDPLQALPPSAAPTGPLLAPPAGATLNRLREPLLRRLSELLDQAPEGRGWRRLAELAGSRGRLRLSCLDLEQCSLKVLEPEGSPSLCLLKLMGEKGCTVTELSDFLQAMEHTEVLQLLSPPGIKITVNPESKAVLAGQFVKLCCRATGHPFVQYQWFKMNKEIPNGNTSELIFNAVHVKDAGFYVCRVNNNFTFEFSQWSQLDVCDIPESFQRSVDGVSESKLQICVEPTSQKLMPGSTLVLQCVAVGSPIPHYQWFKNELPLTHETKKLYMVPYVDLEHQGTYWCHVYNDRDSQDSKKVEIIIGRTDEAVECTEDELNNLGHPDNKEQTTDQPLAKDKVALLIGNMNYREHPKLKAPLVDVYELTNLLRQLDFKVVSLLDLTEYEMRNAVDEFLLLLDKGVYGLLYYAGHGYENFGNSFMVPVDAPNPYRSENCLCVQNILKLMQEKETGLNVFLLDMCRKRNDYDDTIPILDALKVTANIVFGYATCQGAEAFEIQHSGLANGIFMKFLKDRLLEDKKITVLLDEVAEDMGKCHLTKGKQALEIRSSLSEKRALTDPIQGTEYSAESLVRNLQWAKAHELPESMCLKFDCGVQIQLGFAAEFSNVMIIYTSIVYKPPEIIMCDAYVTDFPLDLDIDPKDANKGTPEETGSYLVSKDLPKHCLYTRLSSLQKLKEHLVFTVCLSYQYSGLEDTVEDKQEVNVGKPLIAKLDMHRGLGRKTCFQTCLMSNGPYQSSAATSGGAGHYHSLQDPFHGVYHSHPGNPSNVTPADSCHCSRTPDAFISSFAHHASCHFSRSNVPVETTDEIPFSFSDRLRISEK
Briefly: MALT1 protease assay, Assay 1 (2 nM MALT1, Ac-LRSR-AMC substrate). The following applies: 2 nM MALT1, 50 μM Ac-LRSR-AMC, 2 h pre-incubation, 8 hr incubation at RT. It counts as biochemical. In outline:
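Full-length His-MALT1(1-824) from baculovirus-infected insect cells, pre-incubated with compound 2 h at RT (0.1% DMSO). Then 50 μM Ac-LRSR-AMC added. Buffer was Tris pH 7.5 with 600 mM sodium citrate, DTT, EDTA and BSA. Fluorescence (ex 355/em 460 nm) was read after 8 h at RT and normalized to high/low controls. IC50 from non-linear regression.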

In assay [2] the test system is IL10 secretion in OCI-LY10 cells. Briefly: Human IL10 secretion assay, Assay 1 (HTRF). It counts as cell-based. The conditions noted are these: 24 h incubation, read-out: IL-10 Secretion IC50 [nM] Assay 1. How it is done:
IL10 is one of the cytokines that are regulated via activation of NF-kB signaling. For example, in ABC-DLBCL cell lines, the activated NF-kB signaling leads to increased IL10 secretion. Inhibition of NF-kB signaling has been shown leading to decreased IL10 secretion.
Assay 1: OCI-LY10 cells were seeded in IMEM supplemented with 20% fetal bovine serum at 3×10^5 cells per well in 96-well round bottom plates (Corning 3799, Corning), treated with 100 nL of 3-fold serial compound dilutions, starting at 10 mM. The final vehicle concentration was 0.1% DMSO in all wells. After 24 h incubation, the cells were transferred to 96-PCR plates (Axygen: PCR-96-FLT-C) and centrifuged, then 16 μL of cell culture media was transferred to HTRF plates and IL10 levels were measured using human IL-10 Assay Kits (Cisbio) using HTRF format. The signals were transformed to percentage of remaining activity by using the high control (HC, median of signal from wells containing cells treated with DMSO) and low control (LC, median of signal from wells with no cells). IC50 values (nM) were determined using 4-parametric curve-fitting and Hill coefficient obtained using Graph Pad Prism (Graph Pad software, Inc, USA) with non-linear regression analysis.

Molecules are shown by their SMILES.

As a reminder, the IC50 is the concentration that gives 50% inhibition. Turning to `C[C@]1(C(F)(F)F)C[C@@H](C(=O)Nc2cnc(-n3nccn3)c(Cl)c2)c2cnc3cc(Cl)nn3c21` (single isomer, unassigned) [Example 37, 2-chloro-N-(5-chloro-6-(2H-1,2,3-triazol-2-yl)pyridin-3-yl)-8-methyl-8-(trifluoromethyl)-7,8-dihydro-6H-cyclopenta[e]pyrazolo[1,5-a]pyrimidine-6-carboxamide], the IC50 in assay [1] was 10 to 100 nM; in assay [2], not below 1000 nM.
For the compound `CC1(C)CC(C(=O)Nc2cnc(-n3cccn3)c(Cl)c2)c2cnc3cc(Cl)nn3c21` (single isomer, unassigned) [Example 13, 2-chloro-N-(5-chloro-6-(1H-pyrazol-1-yl)pyridin-3-yl)-8,8-dimethyl-7,8-dihydro-6H-cyclopenta[e]pyrazolo[1,5-a]pyrimidine-6-carboxamide], the IC50 fell in the range of 10 to 100 nM in assay [1] and 100 to 1000 nM in assay [2].
Take `Cn1ccc(-c2ncc(NC(=O)C3CC(C)(C)c4c3cnc3cc(Cl)nn43)cc2Cl)n1` (single isomer, unassigned) [Example 11, 2-chloro-N-(5-chloro-6-(1-methyl-1H-pyrazol-3-yl)pyridin-3-yl)-8,8-dimethyl-7,8-dihydro-6H-cyclopenta[e]pyrazolo[1,5-a]pyrimidine-6-carboxamide]: the results for the IC50 in assay [1] and in assay [2] were 10 to 100 nM and 100 to 1000 nM, respectively.
Consider `CC1(C)CC(C(=O)Nc2cnc(-n3nccn3)c(Cl)c2)c2cnc3cc(C#N)nn3c21` (single isomer, unassigned) [Example 4, N-(5-chloro-6-(2H-1,2,3-triazol-2-yl)pyridin-3-yl)-2-cyano-8,8-dimethyl-7,8-dihydro-6H-cyclopenta[e]pyrazolo[1,5-a]pyrimidine-6-carboxamide], for which the figures for the IC50 in assay [1] and in assay [2] were 10 to 100 nM and 100 to 1000 nM, respectively.
Take `CC1(C)CC(C(=O)Nc2cnc(-n3ncc(CO)n3)c(Cl)c2)c2cnc3cc(Cl)nn3c21` (single isomer, unassigned) [Example 31, 2-chloro-N-(5-chloro-6-(4-(hydroxymethyl)-2H-1,2,3-triazol-2-yl)pyridin-3-yl)-8,8-dimethyl-7,8-dihydro-6H-cyclopenta[e]pyrazolo[1,5-a]pyrimidine-6-carboxamide]: the figures for the IC50 in assay [1] and in assay [2] were less than 10 nM and 100 to 1000 nM, respectively.
For `CC1(C)C[C@H](C(=O)Nc2cnc([C@H]3CCCO3)c(Cl)c2)c2cnc3cc(Cl)nn3c21` (single isomer, unassigned) [Example 29, 2-chloro-N-(5-chloro-6-(tetrahydrofuran-2-yl)pyridin-3-yl)-8,8-dimethyl-7,8-dihydro-6H-cyclopenta[e]pyrazolo[1,5-a]pyrimidine-6-carboxamide] the same measures were 10 to 100 nM and 100 to 1000 nM.
For `CC1(C)CC(C(=O)Nc2cnc(-n3nccn3)c(Cl)c2)c2cnc3cc(Cl)nn3c21` (single isomer, unassigned) [Example 2, 2-chloro-N-(5-chloro-6-(2H-1,2,3-triazol-2-yl)pyridin-3-yl)-8,8-dimethyl-7,8-dihydro-6H-cyclopenta[e]pyrazolo[1,5-a]pyrimidine-6-carboxamide] the same measures were less than 10 nM and 100 to 1000 nM.
For the compound `CC1(C)CC(C(=O)Nc2cnc(-n3nccn3)c(Cl)c2)c2cnc3cc(C(F)F)nn3c21` (single isomer, unassigned) [Example 25, N-(5-chloro-6-(2H-1,2,3-triazol-2-yl)pyridin-3-yl)-2-(difluoromethyl)-8,8-dimethyl-7,8-dihydro-6H-cyclopenta[e]pyrazolo[1,5-a]pyrimidine-6-carboxamide], the results for the half-inhibitory concentration (IC50) in assay [1] and in assay [2] were 10 to 100 nM and 100 to 1000 nM, respectively.
